{"source": "patent US4612318A", "about": "“CNS-depressant and analgesic tricyclo-[pyrazolo-[3,4-6]-pyridine] derivatives and pharmaceutical compositions thereof” (Gruppo Lepetit S.p.A., priority 1982, dated 1986)", "key": {"[1]": {"test_system": "secondary conditioned response (CR2), primary conditioned response (CR) and unconditioned response (UR) of rats", "experiment": "\"pole climbing avoidance test\" (anti-anxiety activity)", "format": "in vivo", "conditions": "i.p., about 3 to about 60 mg/kg, groups of ten rats", "source_text": "The anti-anxiety activity of the compounds of the invention was investigated by means of the \"pole climbing avoidance test\", performed essentially as described by G. Maffii, in Journ. Pharm. Pharmacol., 11 129, (1959). A conditioned animal, generally rat, is deconditioned, i.e. is brought to its normal pyschic behaviour, by administration of a suitable amount of the compound to be tested. According to the authors, an inhibition of the secondary conditioned response (CR2) without a contemporary or coupled with a not significant inhibition of the primary conditioned response (CR) and the unconditioned response (UR) is a clear indication of an anti-anxiety effect since these last two parameters are connected with sedative and hypnotic properties."}, "[2]": {"test_system": "writhing in mice; pain due to compression of oedema paws in rats", "experiment": "analgesic activity in both tests (writhing test in mice and pain relief test in rats)", "format": "in vivo", "source_text": "The analgesic activity of the compounds of the present invention was ascertained by means of two known tests for analgesia: the \"writhing test\" in mice, described by L.C. Hendershot and J. Forsaith, in J. Pharm. Exp. Therap. 125, 237, (1959), and the \"pain relief test\" in rats described by L. O. Randall and J. J. Selitto, in Arch. Int. Pharmacodyn. 111, 409, (1957). In the former the disappearance or the reduction of writhing in mice, intraperitoneally administered, with p-phenylquinone--a substance known to produce pain especially in the place of injection--is evaluated; the latter test is used to evaluate the ratio of relief from the pain due to compression of oedema paws in rats orally administered with the test compound."}, "[3]": {"test_system": "pain due to compression of oedema paws in rats", "experiment": "\"pain relief test\" (compression of oedema paws) for analgesia", "format": "in vivo", "experimental": "(§1) Hendershot and J. Forsaith, in J. Pharm. Exp. Therap. […] Int. Pharmacodyn. […] In the former the disappearance or the reduction of writhing in mice, intraperitoneally administered, with p-phenylquinone--a substance known to produce pain especially in the place of injection--is evaluated; the latter test is used to evaluate the ratio of relief from the pain due to compression of oedema paws in rats orally administered with the test compound."}, "[4]": {"test_system": "writhing in mice intraperitoneally administered with p-phenylquinone", "experiment": "\"writhing test\" (p-phenylquinone) for analgesia", "format": "in vivo", "experimental": "as §1"}, "[5]": {"experiment": "acute toxicity (LD50) in mice", "conditions": "mouse, in vivo, po; orally administered mice"}, "[6]": {"experiment": "acute toxicity (LD50) in rats", "conditions": "rat, in vivo, po; orally administered rats"}}}
{"smiles": "Cc1nn(C)c(N)c1C1=CCN(C)CC1", "note": "[Example 1, 4-(1,2,5,6-tetrahydro-1-methyl-4-pyridinyl)-1,3-dimethyl 5-(1H)-pyrazolamine]", "values": [{"measurement": "influence on the CR and the UR (in words)", "setting": "[1]", "value": "no practical influence"}]}
{"smiles": "CCN(CC)CCn1c(=O)c2c(c3c(C)nn(C)c31)CCC2", "note": "[Example 39]", "values": [{"measurement": "analgesic activity in these tests (in words)", "setting": "[2]", "value": "good activity"}]}
{"smiles": "Cc1nn(C)c2nc(OCCO)c3c(c12)CCCC3", "note": "[Example 28]", "values": [{"measurement": "influence on the CR and the UR (in words)", "setting": "[1]", "value": "no practical influence"}]}
{"smiles": "Cc1nn(C)c2[nH]c(=O)c3c(c12)CCCC3", "note": "[Example 18, 6,7,8,9-Tetrahydro-1,3-dimethyl-3H-pyrazolo[3,4-c]isoquinoline-5(4H)-one]", "values": [{"measurement": "influence on the CR and the UR (in words)", "setting": "[1]", "value": "no practical influence"}]}
{"smiles": "CCC(=O)N1CC=C(c2c(C)nn(C)c2N)CC1", "note": "[Example 8]", "values": [{"measurement": "influence on the CR and the UR (in words)", "setting": "[1]", "value": "no practical influence"}]}
{"smiles": "CC(=O)Oc1ccccc1C(=O)O", "note": "[ASA, acetylsalicylic acid, reference compound]", "values": [{"measurement": "percent of increase of the pain threshold", "setting": "[3]; 50 mg/kg per os", "value": 39, "unit": "%"}, {"measurement": "percent of increase of the pain threshold", "setting": "[3]; 100 mg/kg per os", "value": 84, "unit": "%"}, {"measurement": "percent of increase of the pain threshold", "setting": "[3]; 300 mg/kg per os", "value": 109, "unit": "%"}, {"measurement": "percent of inhibition of writhings", "setting": "[4]; 20 mg/kg per os", "value": 10, "unit": "%"}, {"measurement": "percent of inhibition of writhings", "setting": "[4]; 50 mg/kg per os", "value": 57, "unit": "%"}, {"measurement": "percent of inhibition of writhings", "setting": "[4]; 100 mg/kg per os", "value": 86, "unit": "%"}]}
{"smiles": "Cc1nn(C)c2ncc3c(c12)CCCC3", "note": "[Example 57]", "values": [{"measurement": "percent of increase of the pain threshold", "setting": "[3]; 20 mg/kg per os", "value": 78, "unit": "%"}, {"measurement": "percent of increase of the pain threshold", "setting": "[3]; 50 mg/kg per os", "value": 115, "unit": "%"}, {"measurement": "percent of increase of the pain threshold", "setting": "[3]; 100 mg/kg per os", "value": 172, "unit": "%"}, {"measurement": "potency ratio co. 57:ASA", "setting": "[3]; pain relief test, per os", "value": 2.6}, {"measurement": "analgesic activity in these tests (in words)", "setting": "[2]", "value": "highly effective"}, {"measurement": "LD50", "setting": "[5]", "value": "> 1000", "unit": "mg/kg"}, {"measurement": "percent of inhibition of writhings", "setting": "[4]; 10 mg/kg per os", "value": 25, "unit": "%"}, {"measurement": "percent of inhibition of writhings", "setting": "[4]; 20 mg/kg per os", "value": 51, "unit": "%"}, {"measurement": "percent of inhibition of writhings", "setting": "[4]; 50 mg/kg per os", "value": 89, "unit": "%"}, {"measurement": "potency ratio co. 57:ASA", "setting": "[4]; writhing test, per os", "value": 6.6}, {"measurement": "LD50", "setting": "[6]", "value": 650, "unit": "mg/kg"}]}
{"smiles": "Cc1nn(C)c2c1c1c(c(=O)n2CCN2CCN(C)CC2)CCCC1", "note": "[Example 45]", "values": [{"measurement": "influence on the CR and the UR (in words)", "setting": "[1]", "value": "no practical influence"}]}
{"smiles": "Cc1nn(C)c2ncc3c(c12)CCC3", "note": "[Example 55]", "values": [{"measurement": "analgesic activity in these tests (in words)", "setting": "[2]", "value": "good activity"}]}
{"smiles": "Cc1nn(C)c2c1c1c(c(=O)n2CCN2CCN(c3ccccc3)CC2)CCC1", "note": "[Example 40]", "values": [{"measurement": "influence on the CR and the UR (in words)", "setting": "[1]", "value": "no practical influence"}]}
{"smiles": "CCCCOc1nc2c(c(C)nn2C)c2c1CCCC2", "note": "[Example 27]", "values": [{"measurement": "influence on the CR and the UR (in words)", "setting": "[1]", "value": "no practical influence"}]}
